Common to all, as to type: cell-based
One assay has as its system MIA PaCa-2. The assay is described as follows: Viability assay with MIA PaCa-2. To be noted: MIA PaCa-2, viability assay per Example 57. As to the method: (§1) NCI-H460 (Epithelial lung tissue; carcinoma; large cell lung cancer) were cultured in RPMI Medium 1640 (Invitrogen-22400105) supplemented with 10% fetal bovine serum (FBS; Invitrogen-10099141). All the cell lines were maintained in a humidified incubator at 37° C. with 5% CO2. Cell culture media and supplements were purchased from Invitrogen, and tissue culture flasks were purchased from Corning, 96-well plates were purchased from Greiner. CellTiter-Glo Luminescent Cell Viability Assay kits were purchased from Promega (Promega-G7573), cells counter Vi-Cell was purchased from Beckman, D300e digital dispenser was purchased from Tecan, detection instrument Envision was purchased from PerkinElmer.
(§2) Paclitaxel was purchased from SELLECK, test compounds, such as any one of the compounds disclosed herein, attained solubility in DMSO and when diluted into culture media. DMSO, solutions containing the test compounds, and culture media were warmed to 37° C. or room temperature for the solution preparation and dilutions.
(§3) NCI-H460 Cell line were seeded in 96-well plates (1200/well) and allowed to adhere to overnight (100 uL/well), for drug treatments with 2 fold dilution, 9 dose points, triplicates or vehicle control, compound stock solutions were prepared in DMSO and use D300e digital dispenser to add compounds to the wells to give the indicated final drug concentrations. Final DMSO concentration was 0.5%. Cellular ATP concentrations were assessed by using the CellTiter-Glo Cell Viability Assay as per the manufacturer's instructions 72 h after compounds addition. Additional cells lines were assayed with any one of the compounds disclosed herein according to the procedures described for the viability assay with NCI-H460.
A viability assay with MIA PaCa-2 (Epithelial pancreas tissue; carcinoma) was performed with compounds listed in Table 15, according to the procedures described in Example 57.

Another assay has as its system HT-29. The assay is described as follows: Viability assay with HT-29. Particulars: HT-29, viability assay per Example 57. As to the method:
as §1, §2, §3
A viability assay with HT-29 (Colorectal adenocarcinoma) was performed with compounds listed in Table 18 according to the procedures described in Example 57.

A further assay has as its system NCI-H460. The assay is described as follows: Viability assay with NCI-H460 (CellTiter-Glo cytotoxicity assay, 72 h). To be noted: NCI-H460 cell line, 72 h after compounds addition. The procedure:
as §1, §2, §3

Counter-ions that a name gives are not always drawn.

By EC50 is commonly meant the concentration that produces a half-maximal response. For the molecule `Cn1cc(-c2cn(CCCN)c3ccc(CN4CCN(Cc5ccccc5Cl)CC4)cc23)cn1` [C191; HCl], the EC50 with MIA PaCa-2, in the assay with HT-29 and with NCI-H460 was 5 to 10 µM in each case.

With `NCCCn1cc(-c2ccc(OC(F)(F)F)cc2CN)c2cc(S(=O)(=O)N3CCC(Nc4cccc(Cl)c4)CC3)ccc21` [C263; Formic Acid], the EC50 with MIA PaCa-2 was at most 5 µM; with HT-29 it was 5 to 10 µM; in the assay with NCI-H460, at most 5 µM.

In the case of `NCCCn1cc(-c2ccc(OC(F)(F)F)cc2CN)c2cc(CN3CCN(Cc4cccc(OC(F)(F)F)c4)CC3)ccc21` [C267; HCl], the EC50 in the assay on MIA PaCa-2, with HT-29 and in the assay with NCI-H460 was at most 5 µM in each case.

For `NCCCn1cc(-c2ccc(OC(F)(F)F)cc2)c2c(CN3CCN(Cc4ccccc4Cl)CC3)cccc21` [C183; HCl], the EC50 in the assay with MIA PaCa-2, in the assay with HT-29 and in the assay with NCI-H460 was at most 5 µM in each case.

Turning to `NCc1ccc(-n2cc(-c3ccc(OC(F)(F)F)cc3)c3cc(CN4CCN(Cc5ccccc5Cl)CC4)ccc32)cn1` [C218; Formic Acid], the 50% effective concentration (EC50) with MIA PaCa-2, with HT-29 and in the assay on NCI-H460 was at most 5 µM throughout.

On to `NCCCn1cc(-c2ccc(OC(F)(F)F)cc2)c2c(CN3CCN(CCOc4ccc(Cl)cc4)CC3)cccc21` [C144; HCl], for which the EC50 in the assay on MIA PaCa-2, in the assay with HT-29 and in the assay with NCI-H460 was at most 5 µM throughout.

In the case of `FC(F)(F)Oc1ccc(-c2cn(CCNc3ccccn3)c3ccc(CN4CCN(Cc5ccccc5Cl)CC4)cc23)cc1` [C199; HCl], the EC50 in the assay on MIA PaCa-2, with HT-29 and in the assay with NCI-H460 was 5 to 10 µM each time.

Turning to `CCC1CCN(Cc2ccc3c(c2)c(-c2ccc(OC(F)(F)F)cc2CN)cn3CCCN)CC1` [C261; HCl], the concentration giving a half-maximal response (EC50) in the assay on MIA PaCa-2, in the assay with HT-29 and in the assay on NCI-H460 was at most 5 µM in each case.

Turning to `NCCCn1cc(-c2ccc(OC(F)(F)F)cc2CN)c2cc(CN3CCCC(NCC(F)(F)F)C3)ccc21` (stereo not drawn) [C276; HCl], the concentration for a half-maximal effect (EC50) with MIA PaCa-2 is 5 to 10 µM; with HT-29, 5 to 10 µM; in the assay with NCI-H460 it was at most 5 µM.

In the case of `COc1ccc(-c2cn(C(C)(C)CCN)c3ccc(CN4CCN(Cc5ccccc5Cl)CC4)cc23)cc1` [C206; HCl], the EC50 with MIA PaCa-2, in the assay on HT-29 and in the assay on NCI-H460 was at most 5 µM throughout.

For `CCC1CCN(S(=O)(=O)c2ccc3c(c2)c(-c2ccc(OC)cc2CN)cn3CCCN)CC1` [C270; HCl], the 50% effective concentration (EC50) with MIA PaCa-2, in the assay with HT-29 and with NCI-H460 was at most 5 µM throughout.

`NCCCn1cc(-c2ccc(CCN)cc2)c2cc(CN3CCN(Cc4ccccc4Cl)CC3)ccc21` [C188; HCl]: the EC50 in the assay with MIA PaCa-2, with HT-29 and with NCI-H460 was 5 to 10 µM in each case.

Turning to `NCc1cccc(-n2cc(-c3ccc(OC(F)(F)F)cc3)c3cc(CN4CCN(Cc5ccccc5Cl)CC4)ccc32)c1` [C150; Formic acid], the EC50 with MIA PaCa-2, in the assay on HT-29 and in the assay with NCI-H460 was at most 5 µM throughout.

For `COc1ccc(-c2cn(CCCN)c3ccc(CN4CCN(Cc5ccccc5Cl)CC4)cc23)c(CNS(C)(=O)=O)c1` [C287; HCl], the EC50 with MIA PaCa-2, in the assay with HT-29 and in the assay on NCI-H460 was at most 5 µM each time.

`CC(=O)NCc1cc(OC(F)(F)F)ccc1-c1cn(CCCN)c2ccc(CN3CCN(Cc4ccccc4Cl)CC3)cc12` [C271; HCl]: the EC50 in the assay on MIA PaCa-2, in the assay on HT-29 and in the assay on NCI-H460 was at most 5 µM each time.

As for `COc1ncc(-c2cn(CCCN)c3ccc(CN4CCN(Cc5ccccc5Cl)CC4)cc23)cn1` [C143; HCl], the EC50 in the assay on MIA PaCa-2, in the assay on HT-29 and in the assay on NCI-H460 was 5 to 10 µM throughout.

Take `Cc1ccc(CN2CCN(Cc3ccc4c(c3)c(-c3ccc(OC(F)(F)F)cc3)cn4CCCN)CC2)cc1` [C146; HCl]: the EC50 in the assay with MIA PaCa-2, in the assay with HT-29 and with NCI-H460 was at most 5 µM in each case.

`NCCCn1cc(-c2cccc(CO)c2)c2cc(CN3CCN(Cc4ccccc4Cl)CC3)ccc21` [C152; HCl]: the EC50 in the assay with MIA PaCa-2, in the assay on HT-29 and in the assay with NCI-H460 was at most 5 µM throughout.

In the case of `FC(F)(F)Oc1ccc(-c2cn(CC3CNCCO3)c3ccc(CN4CCN(Cc5ccccc5Cl)CC4)cc23)cc1` (stereo not drawn) [C231; HCl], the EC50 in the assay on MIA PaCa-2, in the assay on HT-29 and in the assay with NCI-H460 was at most 5 µM in each case.

In the case of `CCCCn1cc(-c2ccc(OC(F)(F)F)cc2CN)c2cc(CN3CCN(Cc4ccccc4Cl)CC3)ccc21` [C227; HCl], the EC50 in the assay on MIA PaCa-2, with HT-29 and in the assay on NCI-H460 was at most 5 µM each time.

Take `COc1cnc(-c2cn(CCCN)c3ccc(CN4CCN(Cc5ccccc5Cl)CC4)cc23)nc1` [C204; HCl]: the EC50 with MIA PaCa-2, in the assay on HT-29 and in the assay with NCI-H460 was at most 5 µM each time.

As to `COc1ccc(-n2c(=O)n(CCCN)c3ccc(CN4CCN(Cc5ccccc5Cl)CC4)cc32)cc1` [C200; HCl], the EC50 in the assay on MIA PaCa-2, in the assay on HT-29 and in the assay with NCI-H460 was 5 to 10 µM in each case.

Turning to `FC(F)(F)Oc1ccc(-c2cn(C3CCNC3)c3ccc(CN4CCN(Cc5ccccc5Cl)CC4)cc23)cc1` (stereo not drawn) [C197; HCl], the EC50 in the assay on MIA PaCa-2, with HT-29 and with NCI-H460 was at most 5 µM in each case.

Consider `CC1CCN(Cc2ccc3c(c2)c(-c2ccc(OC(F)(F)F)cc2CN)cn3CCCN)CC1` [C257; HCl], for which the EC50 in the assay with MIA PaCa-2, in the assay with HT-29 and in the assay on NCI-H460 was at most 5 µM each time.

Turning to `CC(C)(N)CCCn1cc(-c2ccc(OC(F)(F)F)cc2CN)c2cc(CN3CCN(Cc4ccccc4Cl)CC3)ccc21` [C251; HCl], the 50% effective concentration (EC50) with MIA PaCa-2, in the assay with HT-29 and in the assay on NCI-H460 was at most 5 µM throughout.

As for `Cc1ncc(CN2CCN(Cc3ccc4c(c3)c(-c3ccc(OC(F)(F)F)cc3)cn4CCCN)CC2)n1C` [C194; HCl], the EC50 with MIA PaCa-2, in the assay with HT-29 and in the assay on NCI-H460 was 5 to 10 µM throughout.

For the molecule `NCCCn1cc(-c2cccc(C(N)=O)c2)c2cc(CN3CCN(Cc4ccccc4Cl)CC3)ccc21` [C179; HCl], the EC50 with MIA PaCa-2, in the assay on HT-29 and with NCI-H460 was at most 5 µM throughout.

For `NCCCn1cc(-c2ccc(OC(F)(F)F)cc2CN)c2cc(CN3CCSCC3)ccc21` [C282; HCl], the EC50 with MIA PaCa-2, in the assay with HT-29 and in the assay with NCI-H460 was at most 5 µM in each case.

As to `NCCCn1cc(-c2ccc(OC(F)(F)F)cc2CN)c2cc(S(=O)(=O)N3CCN(Cc4ccccc4Cl)CC3)ccc21` [C245; Formic Acid], the EC50 in the assay with MIA PaCa-2, in the assay with HT-29 and in the assay with NCI-H460 was at most 5 µM in each case.

Regarding `NCCCn1cc(-c2ccc(OC(F)(F)F)cc2)c2cc(OC3CCN(Cc4ccccc4Cl)CC3)ccc21` [C242; HCl], the EC50 in the assay with MIA PaCa-2, in the assay with HT-29 and with NCI-H460 was 5 to 10 µM in each case.

`NCCCn1cc(-c2ccc(OC(F)(F)F)cc2)c2cc(CN3CCC(CC(F)(F)F)CC3)ccc21` [C130; HCl]: the EC50 in the assay on MIA PaCa-2, with HT-29 and in the assay with NCI-H460 was at most 5 µM throughout.

For `NCCCn1nc(-c2ccc(OC(F)(F)F)cc2)c2cc(CN3CCN(Cc4ccccc4Cl)CC3)ccc21` [C178; HCl], the 50% effective concentration (EC50) in the assay with MIA PaCa-2, with HT-29 and in the assay on NCI-H460 was at most 5 µM throughout.

Turning to `COc1cccc(OC2CCN(Cc3ccc4c(c3)c(-c3ccc(OC(F)(F)F)cc3CN)cn4CCCN)CC2)c1` [C280; HCl], the EC50 with MIA PaCa-2, with HT-29 and in the assay with NCI-H460 was at most 5 µM in each case.

Consider `Cn1ccc(-c2cn(CCCN)c3ccc(CN4CCN(Cc5ccccc5Cl)CC4)cc23)n1` [C189; HCl], for which the EC50 in the assay on MIA PaCa-2 was 5 to 10 µM; with HT-29, at most 5 µM; with NCI-H460, 5 to 10 µM.

In the case of `FC(F)(F)Oc1ccc(-c2cn(CCCNc3ccccn3)c3ccc(CN4CCN(Cc5ccccc5Cl)CC4)cc23)cc1` [C208; Formic Acid], the concentration giving a half-maximal response (EC50) is 5 to 10 µM in the assay with MIA PaCa-2, 5 to 10 µM in the assay with HT-29 and at most 5 µM in the assay on NCI-H460.

`FC(F)(F)Oc1ccc(-c2cn(CC3CCNCC3)c3ccc(CN4CCN(Cc5ccccc5Cl)CC4)cc23)cc1` [C171; HCl]: the EC50 in the assay with MIA PaCa-2, with HT-29 and with NCI-H460 was at most 5 µM in each case.

As to `NCCCn1cc(-c2ccc(OC(F)(F)F)cc2CN)c2cc(CN3CCOCC3)ccc21` [C265; HCl], the EC50 in the assay with MIA PaCa-2, with HT-29 and in the assay on NCI-H460 was at most 5 µM in each case.

In the case of `COc1cccc(CCCCN(C)Cc2ccc3c(c2)c(-c2ccc(OC(F)(F)F)cc2CN)cn3CCCN)c1` [C298; HCl], the values for the EC50 in the assay on MIA PaCa-2, in the assay with HT-29 and in the assay on NCI-H460 were 5 to 10 µM, at most 5 µM and at most 5 µM, respectively.

The values are drawn from patent publication US20170158702A1, “MULTIVALENT RAS BINDING COMPOUNDS” (KYRAS THERAPEUTICS, INC., priority 2015, published 2017).
